We go through one compound from BindingDB's records for doi:10.1124/jpet.300.1.314 (Glaxosmithkline, 2002).

Test [1] has as its target T1, Substance-K receptor (Cavia porcellus, UniProt Q64077).
T1 sequence (Q64077 whole entry): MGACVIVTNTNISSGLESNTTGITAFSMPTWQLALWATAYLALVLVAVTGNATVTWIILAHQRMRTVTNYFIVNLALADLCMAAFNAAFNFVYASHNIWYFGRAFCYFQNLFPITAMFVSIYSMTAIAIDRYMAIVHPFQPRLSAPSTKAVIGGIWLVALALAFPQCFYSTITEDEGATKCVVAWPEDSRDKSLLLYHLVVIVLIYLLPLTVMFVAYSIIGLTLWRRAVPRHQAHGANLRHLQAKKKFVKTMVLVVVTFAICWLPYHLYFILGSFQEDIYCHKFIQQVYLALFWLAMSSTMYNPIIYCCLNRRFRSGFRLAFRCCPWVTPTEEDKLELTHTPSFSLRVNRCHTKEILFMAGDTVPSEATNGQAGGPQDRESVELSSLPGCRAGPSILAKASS

Test [2] concerns the target T2, Substance-K receptor (Rattus norvegicus, UniProt P16610).
T2 sequence (P16610 whole entry): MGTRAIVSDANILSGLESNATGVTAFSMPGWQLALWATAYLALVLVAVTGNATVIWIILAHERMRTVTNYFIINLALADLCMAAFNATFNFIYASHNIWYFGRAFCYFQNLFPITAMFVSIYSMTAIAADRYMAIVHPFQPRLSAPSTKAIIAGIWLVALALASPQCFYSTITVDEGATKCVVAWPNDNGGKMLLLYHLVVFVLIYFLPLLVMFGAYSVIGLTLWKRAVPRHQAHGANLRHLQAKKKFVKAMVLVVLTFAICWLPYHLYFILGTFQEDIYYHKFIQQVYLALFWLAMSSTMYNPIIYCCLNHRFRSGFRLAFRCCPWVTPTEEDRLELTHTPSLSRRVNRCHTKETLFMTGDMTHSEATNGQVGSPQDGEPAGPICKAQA

Values joined by “and” are separate entries in the source; they are usually repeats but may differ in a detail not shown here. Equal entries are not always repeated.

Usually Ki stands for the equilibrium dissociation constant of an inhibitor or competing ligand from its target. Turning to `CC[C@H](NC(=O)c1c(OCC(=O)O)c(-c2ccccc2)nc2ccccc12)c1ccccc1` [N-[(S)-1-Phenylpropyl]-2-phenyl-3-(carboxymethoxy)quinoline-4-carboxamide], the Ki in test [1] was more than 10 µM; in test [2], 2.33 µM and 5.25 µM.
